In patent US20080254003A1, “Differentiation of Human Embryonic Stem Cells and Cardiomyocytes and Cardiomyocyte Progenitors Derived Therefrom” (priority 2004, published 2008):

System: HESC (hES2) co-cultured with END-2 cells
Assay: HESC-END-2 co-culture, scoring of beating areas
Type: cell-based, human
Details: 10^−4 M ascorbic acid, serum-free HESC-END-2 co-culture, day 12, 12-well plates, n=6
Protocol: END-2 cells and HESC lines hES2, hES3 and hES4 cells (passage number between 41-84) were cultured as described previously in Reubinoff B E, Pera M F, Fong C Y et al. Embryonic stem cell lines from human blastocysts: somatic differentiation in vitro. Nat Biotechnol 2000; 18:399-404 and Mummery C, Ward-van Oostwaard D, Doevendans P et al. Differentiation of human embryonic stem cells to cardiomyocytes: role of coculture with visceral endoderm-like cells. Circulation 2003; 107:2733-2740. To initiate co-cultures, END-2 cell cultures, treated for 3 hr with mitomycin C (mit.C; 10 μg/ml), replaced mouse embryonic fibroblasts (MEFs) as feeders for hES cells (Mummery et al (2003) and Mummery C L, van Achterberg T A, van den Eijnden-van Raaij A J et al. Visceral-endoderm-like cell lines induce differentiation of murine P19 embryonal carcinoma cells. Differentiation 1991; 46:51-60). As a control HESC were also grown on MEFs for the same period under the same culture conditions. In standard co-cultures, cells were grown in 12-well plates in DMEM containing L-glutamine, insulin-transferrin-selenium, non-essential amino acids, 90 μM β-mercaptoethanol, penicillin/streptomycin, and 20% FCS (Multicell, Wisent Inc, Canada). Co-cultures were then grown for up to 3 weeks and scored for the presence of areas of beating muscle from 5 days onwards. […]

Structure (SMILES): O=C1O[C@H]([C@@H](O)CO)C(O)=C1O [ascorbic acid]
- increase in the number of beating areas compared to untreated serum-free co-cultures: 40%
